Assay results: patent US20220409593A1 (ARKUDA THERAPEUTICS, priority 2019, published 2022)

Test system: secreted mouse PGRN
Test: progranulin induction cellular assay (PGRN assay, ELISA-based readout)
Details: progranulin secreted into cell culture medium, cells named in method: mouse primary microglia, primary cortical neurons, BV-2
Description: Cellular Assays: To measure the efficacy of compounds, a progranulin induction cellular assay in mouse primary microglia (pMG), primary cortical neurons, and BV-2 cell lines is used. BV-2 cells are split the day before plating into a 96well plate format at approximately 80%. Cells should be plated the day before and allowed for 1 hour attachment period and for 16 hour incubation. Levels of progranulin secreted into the cell culture medium or retained in the cell lysate can be quantified using an ELISA-based readout and measurement of secreted mouse PGRN in the medium was assessed by the methodology published by Ghidoni et al. 2012. Standard ELISA kits to measure PGRN are available from vendors such as Adipogen, R&D, and Biovendor.
Table D below presents the results of a PGRN assay as described above.

| SMILES | EC50 (Mus musculus) | EC50 |
| --- | --- | --- |
| Fc1cccc([C@H]2c3ccccc3CCN2C2=NC[C@]3(CN4CCC3CC4)O2)c1 (stereo in doubt) [Compound 3021] | > 10000 nM |  |
| Fc1ccc([C@H]2c3ccccc3CCN2C2=N[C@@]3(CO2)CN2CCC3CC2)cc1 (single isomer, unassigned) [Compound 3057B] | 126 nM |  |
| Fc1cccc([C@@H]2c3ccccc3CCN2C2=NC[C@]3(CN4CCC3CC4)O2)c1 (stereo in doubt) [Compound 3023] | 2170 nM |  |
| NC[C@H]1C[C@@]2(CN=C(N3CCc4ccccc4[C@@H]3c3ccc(F)cc3)O2)C1 (single isomer, unassigned) [Compound 3160] | 993 nM |  |
| Fc1ccc([C@H]2c3ccccc3CCN2C2=N[C@@H](C3CCNCC3)CO2)cc1 (single isomer, unassigned) [Compound 3133] | 612 nM |  |
| CN1CCC[C@]2(CN=C(N3CCc4ccccc4[C@H]3c3cccc(F)c3)O2)C1 (single isomer, unassigned) [Compound 3008] | > 10000 nM |  |
| Fc1ccc([C@H]2c3ccccc3CCN2C2=NC[C@@]3(CNC[C@@H]3F)O2)cc1 (single isomer, unassigned) [Compound 3170] | 538 nM |  |
| Fc1ccc([C@@H]2c3ccccc3CCN2C2=NC[C@]3(CN4CCC3CC4)O2)cc1F (stereo in doubt) [Compound 3027] | 2080 nM |  |
| CN1CCC[C@@]2(CN=C(N3CCc4ccccc4[C@H]3c3cccc(F)c3F)O2)C1 (stereo in doubt) [Compound 3044] | 5000 nM |  |
| CN1CCC(F)[C@]2(CN=C(N3CCc4ccccc4[C@@H]3c3ccc(F)cc3)O2)C1 (single isomer, unassigned) [Compound 3046] | 3370 nM |  |
| Fc1ccc([C@H]2c3ccccc3CCN2C2=NC[C@]3(CCCNC3)O2)cc1 [Compound 3052] | 440 nM |  |
| CN1CCC[C@@]2(CN=C(N3CCc4ccccc4[C@@H]3c3cc(F)cc(F)c3)O2)C1 (single isomer, unassigned) [Compound 3011] | 7640 nM |  |
| CN1CCC[C@@]2(CN=C(N3CCc4ccccc4[C@@H]3c3cccc(F)c3)O2)C1 (single isomer, unassigned) [Compound 3007] | 370 nM |  |
| Fc1ccc([C@H]2c3ccccc3CCN2C2=NC[C@@H]([C@H]3CCCNC3)O2)cc1 (single isomer, unassigned) [Compound 3077] | 475 nM |  |
| Fc1cc(F)cc([C@H]2c3ccccc3CCN2C2=NC[C@]3(CN4CCC3CC4)O2)c1 (stereo in doubt) [Compound 3037] | 1000 nM |  |
| Fc1ccc([C@H]2c3ccccc3CCN2C2=NC[C@@]3(CCN(CC(F)(F)F)C3)O2)cc1 [Compound 3172, (S)-2-((S)-1-(4-fluorophenyl)-3,4-dihydroisoquinolin-2(1H)-yl)-7-(2,2,2-trifluoroethyl)-1-oxa-3,7-diazaspiro[4.4]non-2-ene] | 1520 nM |  |
| CN1CCC[C@]2(CN=C(N3CCc4ccccc4[C@@H]3c3cc(F)c(F)c(F)c3)O2)C1 (single isomer, unassigned) [Compound 3002] | 5080 nM |  |
| CN1CCC[C@]2(CN=C(N3CCc4ccccc4[C@@H]3c3cccc(F)c3)O2)C1 (single isomer, unassigned) [Compound 3009] |  | 7020 nM |
| CN1CCC[C@@]2(CN=C(N3CCc4ccccc4[C@@H]3c3cc(F)c(F)c(F)c3)O2)C1 (single isomer, unassigned) [Compound 3003] | 4280 nM |  |
| Fc1ccc([C@H]2c3ccccc3CCN2C2=NC[C@]3(CCN(CC(F)(F)F)C3)O2)cc1 [Compound 3171, (R)-2-((S)-1-(4-fluorophenyl)-3,4-dihydroisoquinolin-2(1H)-yl)-7-(2,2,2-trifluoroethyl)-1-oxa-3,7-diazaspiro[4.4]non-2-ene] | 836 nM |  |
| Fc1ccc([C@H]2c3ccccc3CCN2C2=NC[C@@]3(CCCNC3)O2)cc1 [Compound 3051] | 980 nM |  |
| Fc1ccc([C@H]2c3ccccc3CCN2C2=NC[C@@H]([C@@H]3CCCNC3)O2)cc1 (single isomer, unassigned) [Compound 3149] | 481 nM |  |
| Fc1cccc([C@@H]2c3ccccc3CCN2C2=NC[C@@]3(CN4CCC3CC4)O2)c1F (single isomer, unassigned) [Compound 3018] | > 10000 nM |  |
| Fc1ccc([C@H]2c3ccccc3CCN2C2=N[C@@H]([C@@H]3CCNC3)CO2)cc1 (single isomer, unassigned) [Compound 3074] | 338 nM |  |
| CN1CCC[C@]2(CN=C(N3CCc4ccccc4[C@@H]3c3cc(F)c(F)c(F)c3)O2)C1 (single isomer, unassigned) [Compound 3004] |  | > 10000 nM |
| Fc1ccc([C@@H]2c3ccccc3CCN2C2=NC[C@@]3(CN4CCC3CC4)O2)cc1F (stereo in doubt) [Compound 3026] | 310 nM |  |
| Fc1ccc([C@H]2c3ccccc3CCN2C2=N[C@H]([C@H]3CCNC3)CO2)cc1 (single isomer, unassigned) [Compound 3072] | 330 nM |  |
| CN1CCC[C@]2(CN=C(N3CCc4ccccc4[C@H]3c3ccc(F)c(F)c3)O2)C1 (stereo in doubt) [Compound 3031] | 4310 nM |  |
| CN1CC[C@@H](F)[C@]2(CN=C(N3CCc4ccccc4[C@@H]3c3ccc(F)cc3)O2)C1 (single isomer, unassigned) [Compound 3045] | 4490 nM |  |
| Fc1ccc([C@H]2c3ccccc3CCN2C2=NO[C@@]3(CN4CCC3(F)CC4)O2)cc1 (single isomer, unassigned) [Compound 3034] | 450 nM |  |

Continued by falling EC50 (Mus musculus), values first:

| EC50 (Mus musculus) | EC50 | SMILES |
| --- | --- | --- |
| 266 nM |  | CN1CCC[C@@H]([C@@H]2CN=C(N3CCc4ccccc4[C@@H]3c3ccc(F)cc3)O2)C1 (single isomer, unassigned) [Compound 3150] |
| 250 nM |  | Fc1ccc([C@H]2c3ccccc3CCN2C2=N[C@]3(CCCNC3)CO2)cc1 (single isomer, unassigned) [Compound 3053] |
| 249 nM |  | O[C@H]1CNC[C@@]12CN=C(N1CCc3ccccc3[C@@H]1c1ccc(F)cc1)O2 [Compound 3178, (5R,9S)-2-((S)-1-(4-fluorophenyl)-3,4-dihydroisoquinolin-2(1H)-yl)-1-oxa-3,7-diazaspiro[4.4]non-2-en-9-ol] |
| 244 nM |  | Fc1ccc([C@H]2c3ccccc3CCN2C2=NC[C@@H]([C@H]3CCNC3)O2)cc1 (single isomer, unassigned) [Compound 3065] |
| 237 nM |  | CN(C)[C@@H]1CC[C@@]2(CN=C(N3CCc4ccccc4[C@@H]3c3ccc(F)cc3)O2)C1 (single isomer, unassigned) [Compound 3163] |
| 236 nM |  | N[C@@H]1CC[C@]2(CN=C(N3CCc4ccccc4[C@@H]3c3ccc(F)cc3)O2)C1 (single isomer, unassigned) [Compound 3079] |
| 222 nM |  | Fc1ccc([C@H]2c3ccccc3CCN2C2=NC[C@H]([C@@H]3CCCNC3)O2)cc1 (single isomer, unassigned) [Compound 3075] |
| 209 nM |  | CN(C)[C@H]1C[C@@]2(CN=C(N3CCc4ccccc4[C@@H]3c3ccc(F)cc3)O2)C1 (single isomer, unassigned) [Compound 3159] |
| 208 nM |  | Fc1ccc([C@H]2c3ccccc3CCN2C2=NC[C@H]([C@@H]3CCNC3)O2)cc1 (single isomer, unassigned) [Compound 3063] |
| 192 nM |  | Fc1ccc([C@H]2c3ccccc3CCN2C2=NC[C@H](C3(F)CNC3)O2)cc1 (single isomer, unassigned) [Compound 3155] |
| 163 nM |  | c1ccc([C@H]2c3ccccc3CCN2C2=NC[C@]3(CCNC3)O2)cc1 (single isomer, unassigned) [Compound 3166] |
| 160 nM |  | N[C@@H]1CC[C@@]2(COC(N3CCc4ccccc4[C@@H]3c3ccc(F)cc3)=N2)C1 [Compound 3082, (5S,7R)-2-((S)-1-(4-fluorophenyl)-3,4-dihydroisoquinolin-2(1H)-yl)-3-oxa-1-azaspiro[4.4]non-1-en-7-amine] |
| 137 nM |  | CN(C)[C@@H]1CC[C@]2(CN=C(N3CCc4ccccc4[C@@H]3c3ccc(F)cc3)O2)C1 (single isomer, unassigned) [Compound 3164] |
| 118 nM |  | c1ccc([C@H]2c3ccccc3CCN2C2=NC[C@@]3(CCNC3)O2)cc1 (single isomer, unassigned) [Compound 3165] |
| 115 nM |  | N[C@H]1C[C@@]2(CN=C(N3CCc4ccccc4[C@@H]3c3ccc(F)cc3)O2)C1 [Compound 3061, (S)-6-(1-(4-fluorophenyl)-3,4-dihydroisoquinolin-2(1H)-yl)-5-oxa-7-azaspiro[3.4]oct-6-en-2-amine] |
| 110 nM |  | Fc1ccc([C@H]2c3ccccc3CCN2C2=NCC3(CCNCC3)O2)cc1 [Compound 3060, (S)-2-(1-(4-fluorophenyl)-3,4-dihydroisoquinolin-2(1H)-yl)-1-oxa-3,8-diazaspiro[4.5]dec-2-ene] |
| 110 nM |  | Fc1ccc([C@H]2c3ccccc3CCN2C2=NC3(CCNCC3)CO2)cc1 [Compound 3056, (S)-2-(1-(4-fluorophenyl)-3,4-dihydroisoquinolin-2(1H)-yl)-3-oxa-1,8-diazaspiro[4.5]dec-1-ene] |
| 99.8 nM |  | Fc1ccc([C@H]2c3ccccc3CCN2C2=N[C@@H](C3(F)CNC3)CO2)cc1 (single isomer, unassigned) [Compound 3156] |
| 85.3 nM |  | O=C1N[C@@]2(CCCNC2)N=C1N1CCc2ccccc2[C@@H]1c1ccc(F)cc1 [Compound 3148] |
| 68.7 nM |  | CN1CC[C@]2(CN=C(N3CCc4ccccc4[C@@H]3c3ccc(F)cc3)O2)C1 [Compound 3168, (R)-2-((S)-1-(4-fluorophenyl)-3,4-dihydroisoquinolin-2(1H)-yl)-7-methyl-1-oxa-3,7-diazaspiro[4.4]non-2-ene] |
| 19 nM |  | Fc1ccc([C@H]2c3ccccc3CCN2C2=NC[C@@]3(CCNC3)O2)cc1 [Compound 3049] |
| 15 nM |  | Fc1ccc([C@H]2c3ccccc3CCN2C2=NC[C@]3(CCNC3)O2)cc1 (single isomer, unassigned) [Compound 3050] |
